# Experimental data reported in patent US20250205233A1, “EPIDERMAL GROWTH FACTOR RECEPTOR (EGFR) TYROSINE KINASE INHIBITORS IN COMBINATION WITH AN AKT INHIBITOR FOR THE TREATMENT OF CANCER” (AstraZeneca AB, priority 2022, published 2025).
# “Also recorded” adds a separate entry of the source. Where two headings read alike, the source gives them in different places.
# Tests used:
# PC9-PIK3CAm cells = assay: Clonogenic assay; assay type: cell-based, human; settings: osimertinib 160 nM, 8 days, crystal violet
# Source text: Cells were stained with Crystal violet at the end of the treatment (8 days) and cell density (% surface) quantified by ImageJ.
# [1] = tested on: PIK3CA H1047R and PIK3CA E453K-positive cells; assay: Osimertinib selection of CRISPR knock-in cell pools, DNA sequencing; assay type: cell-based, human; settings: osimertinib (100 nM) for 3 weeks; NGS and SANGER sequencing
# Source text: As the efficiency of knock-ins using this technology is usually low, only a small proportion of cells was expected to be genetically modified, thus mimicking the emergence of a co-occurring resistance mutation in a tumour.
# PC9 PIK3CA^H1047R cells = settings: osimertinib alone
# PC9 PTEN^KO xenograft = assay: Xenograft model, tumour volume; assay type: in vivo, NOD/SCID mice
# Protocol: (§1) e) PC9 PTEN-KO and HCC827 PTEN-KO cell lines were cultured in RPMI1640 supplemented with 10% FCS and cultured in a humidified incubator with 5% CO2 at 37° C. PC9 PTEN-KO and HCC827 PTEN-KO xenografts were established by subcutaneous implantation of 5×10^6, cells per animal, in 100 μL of cell suspension including 50% matrigel, into the flank of female NOD/SCID and nude mice respectively. All mice were older than 6 weeks at the time of cell implant. Tumour growth was monitored twice weekly by bilateral calliper measurements and tumour volume calculated using the formula TV (mm3)=[length (mm)×width (mm)2]×0.5, where the length and the width are the longest and the shortest diameters of the tumour.
# [2] = tested on: P-EGFR, MAPK signalling, P-AKT and P-S6 in PC9-PIK3CAm cells; assay: Intracellular changes by WB analysis; assay type: cell-based, human; settings: 4 h
# [3] = tested on: HCC-827 PTEN^KO xenograft; settings: mouse
# Protocol: as §1
# HCC-827 PTEN^KO cells = assay type: cell-based, human
# PC9 PTEN^KO cells = assay: Clonogenic assay (long term); assay type: cell-based, human; settings: 160 nM osimertinib
# [4] = tested on: p-S6 in PC9 PTEN^KO cells; assay: Intracellular changes by WB analysis; assay type: cell-based, human; settings: treated for 3 weeks with osimertinib 160 nM
structure (smiles),measurement,setting,value
"C=CC(=O)Nc1cc(Nc2nccc(-c3cn(C)c4ccccc34)n2)c(OC)cc1N(C)CCN(C)C [osimertinib, N-(2-{2-dimethylaminoethyl-methylamino}-4-methoxy-5-{[4-(1-methylindol-3-yl)pyrimidin-2-yl]amino}phenyl)prop-2-enamide]",clonogenic growth (cell density): resistance to osimertinib compared to parental PC9,PC9-PIK3CAm cells,developed resistance
same,outgrowth of PIK3CA-mutant cells under osimertinib selection,[1],conferred resistance
same,osimertinib-induced apoptotic response (caspase 3/7 activation) compared to parental PC9,PC9 PIK3CA^H1047R cells,diminished apoptotic response
same,osimertinib-induced apoptotic response (caspase 3/7 activation) compared to parental PC9,PC9 PIK3CA^H1047R cells; listed as Osimertinib,Diminished apoptotic response
same,degree of resistance to Osimertinib in vivo,PC9 PTEN^KO xenograft,at best very modest
same,levels of P-AKT and P-S6 (western blot),"[2]; 160 nM osimertinib alone, PC9-PIK3CAm cells",refractory
same,P-EGFR levels and MAPK signalling (western blot),"[2]; 160 nM osimertinib, parental and PC9-PIK3CAm cells",downregulation of P-EGFR levels and MAPK signalling
same,degree of resistance to Osimertinib in vivo,[3],at best very modest
same,clonogenic growth: resistance to osimertinib compared to parental cells,HCC-827 PTEN^KO cells,resulted in osimertinib resistance; also recorded: develop resistance
same,cell density (% surface) higher than parental HCC-827,"HCC-827 PTEN^KO cells; 160 nM osimertinib, after 3 weeks",20 X
same,cell density higher than parental PC9 cells,PC9 PTEN^KO cells,2 ×
same,clonogenic growth: resistance to osimertinib compared to parental cells,PC9 PTEN^KO cells; 3 or 5 weeks,milder resistance phenotype; also recorded: develop resistance
same,p-S6 levels (western blot),[4],persistent p-S6 levels
